Experimental data published in patent publication US9434734B2, “Substituted pyrazoloquinazolinones and pyrroloquinazolinones as allosteric modulators of group II metabotropic glutamate receptors” (Domain Therapeutics, priority 2012, dated 2016).
Like-named read-outs stand apart in the source and are kept apart here.

Experiments:
[1] = molecular target: T1, human mGluR2 (hmGluR2) transiently over-expressed in HEK-293 cells (Homo sapiens, UniProt Q14416); experiment: Human mGluR2 negative allosteric modulator evaluation using Ca++ functional assay (agonist and NAM activity); format: cell-based
T1 construct: expressed in transfected cells; host or cells: HEK-293 cells, transient co-transfection by electroporation
How it was run: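 Compound alone (agonist mode) was followed on the same plate by EC80 glutamate (NAM mode), with fluorescence read 60 s. Eight-point curves, variable-slope fit, duplicate, two independent runs.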

human mGluR3 (hmGluR3) = human mGluR3 (hmGluR3) (Homo sapiens, UniProt Q14832); experiment: mGluR3 negative allosteric modulator activity; format: cell-based
[2] = hmGluR2 in HEK-293 cells, EC80 glutamate, Fluo4AM calcium readout, read-out: mGluR2 negative allosteric modulator activity IC50

T1 sequence (Q14416 19-872): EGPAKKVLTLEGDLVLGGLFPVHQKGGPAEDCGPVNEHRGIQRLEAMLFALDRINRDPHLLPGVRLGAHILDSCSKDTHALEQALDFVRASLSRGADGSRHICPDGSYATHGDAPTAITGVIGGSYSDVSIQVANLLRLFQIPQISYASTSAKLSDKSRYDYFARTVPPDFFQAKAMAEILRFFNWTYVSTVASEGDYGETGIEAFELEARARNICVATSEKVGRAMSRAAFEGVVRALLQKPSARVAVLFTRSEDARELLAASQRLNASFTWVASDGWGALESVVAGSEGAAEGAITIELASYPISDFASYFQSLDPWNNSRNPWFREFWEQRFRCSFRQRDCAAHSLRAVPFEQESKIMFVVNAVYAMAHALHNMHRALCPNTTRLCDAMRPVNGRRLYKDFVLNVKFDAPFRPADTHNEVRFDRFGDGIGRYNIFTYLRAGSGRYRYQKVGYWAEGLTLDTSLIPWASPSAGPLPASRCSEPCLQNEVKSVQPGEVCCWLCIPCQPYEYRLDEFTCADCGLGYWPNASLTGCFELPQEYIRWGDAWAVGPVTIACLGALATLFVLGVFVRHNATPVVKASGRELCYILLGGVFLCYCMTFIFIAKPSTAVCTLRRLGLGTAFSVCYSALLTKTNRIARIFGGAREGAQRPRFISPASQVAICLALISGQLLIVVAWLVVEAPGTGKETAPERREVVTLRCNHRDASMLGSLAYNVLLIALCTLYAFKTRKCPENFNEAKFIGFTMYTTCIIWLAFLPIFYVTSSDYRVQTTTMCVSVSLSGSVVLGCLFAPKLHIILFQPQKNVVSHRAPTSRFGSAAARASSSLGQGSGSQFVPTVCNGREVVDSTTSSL
human mGluR3 (hmGluR3), sequence (Q14832 23-879): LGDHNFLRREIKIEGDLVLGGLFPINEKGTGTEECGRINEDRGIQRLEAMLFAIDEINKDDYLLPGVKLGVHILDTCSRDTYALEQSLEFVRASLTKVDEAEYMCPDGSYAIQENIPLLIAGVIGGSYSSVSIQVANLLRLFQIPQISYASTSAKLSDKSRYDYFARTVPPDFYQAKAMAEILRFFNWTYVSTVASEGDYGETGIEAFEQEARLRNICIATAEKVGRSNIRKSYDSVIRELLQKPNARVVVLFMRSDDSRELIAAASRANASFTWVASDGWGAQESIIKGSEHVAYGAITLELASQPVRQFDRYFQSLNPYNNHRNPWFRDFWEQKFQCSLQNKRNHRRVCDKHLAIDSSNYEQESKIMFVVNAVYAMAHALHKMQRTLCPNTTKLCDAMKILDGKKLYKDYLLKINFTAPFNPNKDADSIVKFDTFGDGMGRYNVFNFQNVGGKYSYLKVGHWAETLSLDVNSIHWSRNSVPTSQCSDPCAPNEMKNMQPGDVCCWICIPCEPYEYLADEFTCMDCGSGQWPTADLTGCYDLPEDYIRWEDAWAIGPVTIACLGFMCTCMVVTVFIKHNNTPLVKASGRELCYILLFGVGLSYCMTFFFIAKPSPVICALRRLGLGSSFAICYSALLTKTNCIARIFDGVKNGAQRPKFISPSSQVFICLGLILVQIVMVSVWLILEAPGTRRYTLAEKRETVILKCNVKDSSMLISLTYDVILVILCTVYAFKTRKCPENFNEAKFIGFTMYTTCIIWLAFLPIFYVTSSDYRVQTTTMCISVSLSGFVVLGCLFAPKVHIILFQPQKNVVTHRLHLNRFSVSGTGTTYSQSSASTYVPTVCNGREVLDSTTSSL

Structure (SMILES) | IC50 [1, 2] | IC50 (human mGluR3 (hmGluR3)) | melting point | IC50 ([1]; N-methylated compounds, statement in description, read-out: IC50 for mGluR2)
CCn1c(=O)c2ccc(-c3ccc(N)nc3)cc2n2nc(C3CCCC3)cc12.Cl [Example 69, 8-(6-Amino-pyridin-3-yl)-2-cyclopentyl-4-ethyl-4H-pyrazolo[1,5-a]quinazolin-5-one] | < 1 µM | < 1 µM | > 250 °C | 
CCn1c(=O)c2ccc(-c3ccc(N)nc3)cc2n2nc(-c3ccccc3)cc12.Cl [Example 43, 8-(6-Amino-pyridin-3-yl)-4-ethyl-2-phenyl-4H-pyrazolo[1,5-a]quinazolin-5-one] | < 1 µM |  | 207 to 208 °C | 
Cc1cc(-c2ccc3c(=O)n(C)c4cc(-c5ccccc5)nn4c3c2)cnc1N.Cl [Example 26, 8-(6-Amino-5-methyl-pyridin-3-yl)-4-methyl-2-phenyl-4H-pyrazolo[1,5-a]quinazolin-5-one] | < 1 µM |  | 226 to 227 °C | 
Cc1cc(-c2ccc3c(=O)n(C)c4cc(C5CCCCO5)nn4c3c2)cc(C)n1.Cl (stereo not drawn) [Example 109, 8-(2,6-Dimethyl-pyridin-4-yl)-4-methyl-2-(tetrahydro-pyran-2-yl)-4H-pyrazolo[1,5-a]quinazolin-5-one] | < 1 µM |  | 186 to 194 °C | 
CCCn1c(=O)c2ccc(-c3ccc(N)nc3)cc2n2nc(-c3ccccc3)cc12.Cl [Example 44, 8-(6-Amino-pyridin-3-yl)-2-phenyl-4-propyl-4H-pyrazolo[1,5-a]quinazolin-5-one] | < 1 µM |  | > 250 °C | 
CCc1nc(N)ccc1-c1ccc2c(=O)n(C)c3cc(-c4ccccc4)nn3c2c1.Cl [Example 27, 8-(6-Amino-2-ethyl-pyridin-3-yl)-4-methyl-2-phenyl-4H-pyrazolo[1,5-a]quinazolin-5-one] | < 1 µM |  | 239 to 240 °C | 
CN(C)S(=O)(=O)c1cccc(-c2ccc3c(=O)n(CC4CC4)c4cc(-c5ccccc5)nn4c3c2)c1 [Example 42, 3-(4-Cyclopropylmethyl-5-oxo-2-phenyl-4,5-dihydro-pyrazolo[1,5-a]quinazolin-8-yl)-N,N-dimethyl-benzenesulfonamide] | < 1 µM |  | 115 to 119 °C | 
Cn1c(=O)c2ccc(-c3cc[nH]n3)cc2n2nc(-c3ccccc3)cc12 [Example 17, 4-Methyl-2-phenyl-8-(1H-pyrazol-3-yl)-4H-pyrazolo[1,5-a]quinazolin-5-one] | < 1 µM |  | 245 to 249 °C | 
COCCc1cc2n(C)c(=O)c3ccc(-c4ccc(N)nc4)cc3n2n1.Cl [Example 53, 8-(6-Amino-pyridin-3-yl)-2-(2-methoxy-ethyl)-4-methyl-4H-pyrazolo[1,5-a]quinazolin-5-one] | < 1 µM |  | 198 to 202 °C | 
Cc1cc(-c2ccc3c(=O)n(C)c4cc(-c5cnn(C)c5)nn4c3c2)cc(C)n1.Cl [Example 130, 8-(2,6-Dimethyl-pyridin-4-yl)-4-methyl-2-(1-methyl-1H-pyrazol-4-yl)-4H-pyrazolo[1,5-a]quinazolin-5-one] | < 1 µM |  | > 250 °C | 
Cl.Cn1c(=O)c2ccc(-c3ccc(N)nc3)cc2n2nc(C3CCS(=O)(=O)CC3)cc12 [Example 84, 8-(6-Amino-pyridin-3-yl)-2-(1,1-dioxo-tetrahydro-2H-thiopyran-4-yl)-4-methyl-4H-pyrazolo[1,5-a]quinazolin-5-one] | < 1 µM |  | > 250 °C | 
CCn1c(=O)c2ccc(-c3cccc(S(=O)(=O)N(C)C)c3)cc2n2nc(-c3ccccc3)cc12 [Example 39, N,N-Dimethyl-3-(4-Ethyl-5-oxo-2-phenyl-4,5-dihydro-pyrazolo[1,5-a]quinazolin-8-yl)-benzenesulfonamide] | < 1 µM |  | 197 to 198 °C | 
CCCn1c(=O)c2ccc(-c3cccc(S(=O)(=O)N(C)C)c3)cc2n2nc(-c3ccccc3)cc12 [Example 40, N,N-Dimethyl-3-(4-propyl-5-oxo-2-phenyl-4,5-dihydro-pyrazolo[1,5-a]quinazolin-8-yl)-benzenesulfonamide] | < 1 µM |  | 112 to 116 °C | 
Cl.Cn1c(=O)c2ccc(-c3ccc(N)nc3)cc2n2nc(C3CCCC3)cc12 [Example 65, 8-(6-Amino-pyridin-3-yl)-2-cyclopentyl-4-methyl-4H-pyrazolo[1,5-a]quinazolin-5-one] | < 1 µM |  | > 250 °C | 
Cl.Nc1ccc(-c2ccc3c(=O)n(C4CCC4)c4cc(-c5ccccc5)nn4c3c2)cn1 [Example 48, 8-(6-Amino-pyridin-3-yl)-4-cyclobutyl-2-phenyl-4H-pyrazolo[1,5-a]quinazolin-5-one] | < 1 µM |  | 203 to 205 °C | 
CN(C)S(=O)(=O)c1cccc(-c2ccc3c(=O)n(C)c4cc(-c5ccccc5)nn4c3c2)c1 [Example 38, N,N-Dimethyl-3-(4-methyl-5-oxo-2-phenyl-4,5-dihydro-pyrazolo[1,5-a]quinazolin-8-yl)-benzenesulfonamide] | < 1 µM |  | 202 to 204 °C | < 0.03 µM
Cc1cc(-c2cc3n(C)c(=O)c4ccc(-c5c(C)n[nH]c5C)cc4n3n2)cc(C)n1.Cl [Example 146, 8-(3,5-Dimethyl-1H-pyrazol-4-yl)-2-(2,6-dimethyl-pyridin-4-yl)-4-methyl-4H-pyrazolo[1,5-a]quinazolin-5-one] | < 1 µM |  | > 250 °C | 
Cc1cc(-c2cc3n(C)c(=O)c4ccc(-c5c[nH]nc5C)cc4n3n2)cc(C)n1.Cl [Example 121, 2-(2,6-Dimethyl-pyridin-4-yl)-4-methyl-8-(3-methyl-1H-pyrazol-4-yl)-4H-pyrazolo[1,5-a]quinazolin-5-one] | < 1 µM |  | > 250 °C | 
Cn1c(=O)c2ccc(-c3cccc(C(=O)O)c3)cc2n2nc(-c3ccccc3)cc12 [Example 34, 3-(4-Methyl-5-oxo-2-phenyl-4,5-dihydro-pyrazolo[1,5-a]quinazolin-8-yl)-benzoic Acid] | < 1 µM | < 1 µM | > 250 °C | 
Cc1nc(N)cnc1-c1ccc2c(=O)n(C)c3cc(-c4ccccc4)nn3c2c1.Cl [Example 32, 8-(5-Amino-3-methyl-pyrazin-2-yl)-4-methyl-2-phenyl-4H-pyrazolo[1,5-a]quinazolin-5-one] | < 1 µM |  | 188 to 189 °C | 
Cc1cc(-c2ccc3c(=O)n(C)c4cc(C5CCCOC5)nn4c3c2)cc(C)n1.Cl (stereo not drawn) [Example 108, 8-(2,6-Dimethyl-pyridin-4-yl)-4-methyl-2-(tetrahydro-pyran-3-yl)-4H-pyrazolo[1,5-a]quinazolin-5-one] | < 1 µM |  | 182 to 193 °C | 
Cl.Cn1c(=O)c2ccc(-c3ccc(N)nc3)cc2n2nc(Cc3ccccc3)cc12 [Example 79, 8-(6-Amino-pyridin-3-yl)-2-benzyl-4-methyl-4H-pyrazolo[1,5-a]quinazolin-5-one] | < 1 µM |  | > 250 °C | 
Cn1c(=O)c2ccc(-c3ccc(N)cc3)cc2n2nc(-c3ccccc3)cc12 [Example 3, 8-(4-Amino-phenyl)-4-methyl-2-phenyl-4H-pyrazolo[1,5-a]quinazolin-5-one] | < 1 µM |  | 173 to 175 °C | 
Cc1cc(-c2ccc3c(=O)n(C)c4cc(-c5ccnc(C(F)(F)F)c5)nn4c3c2)ccn1.Cl [Example 138, 4-Methyl-8-(2-methyl-pyridin-4-yl)-2-(2-trifluoromethyl-pyridin-4-yl)-4H-pyrazolo[1,5-a]quinazolin-5-one] | < 1 µM |  | > 250 °C | 
Cl.Cn1c(=O)c2ccc(-c3ccc(N)nc3)cc2n2nc(-c3ccc(F)cc3)cc12 [Example 80, 8-(6-Amino-pyridin-3-yl)-2-(4-fluoro-phenyl)-4-methyl-4H-pyrazolo[1,5-a]quinazolin-5-one] | < 1 µM |  | > 250 °C | 
Cc1cc(-c2cc3n(C)c(=O)c4ccc(-c5ccccc5)cc4n3n2)cc(C)n1.Cl [Example 115, 2-(2,6-Dimethyl-pyridin-4-yl)-4-methyl-8-phenyl-4H-pyrazolo[1,5-a]quinazolin-5-one] | < 1 µM |  | > 250 °C | 
CCc1ncccc1-c1ccc2c(=O)n(C)c3cc(-c4ccnc(C(F)(F)F)c4)nn3c2c1.Cl [Example 137, 8-(2-Ethyl-pyridin-3-yl)-4-methyl-2-(2-trifluoromethyl-pyridin-4-yl)-4H-pyrazolo[1,5-a]quinazolin-5-one] | < 1 µM |  | > 250 °C | 
Cl.Cn1c(=O)c2ccc(-c3ccc(N)nc3)cc2n2cc(-c3ccccc3)cc12 [Example 110, 8-(6-Amino-pyridin-3-yl)-4-methyl-2-phenyl-4H-pyrrolo[1,2-a]quinazolin-5-one] | < 1 µM |  | > 250 °C | 
Cl.Cn1cc(-c2cc3n(C)c(=O)c4ccc(-c5ccc(N)nc5)cc4n3n2)cn1 [Example 128, 8-(6-Amino-pyridin-3-yl)-4-methyl-2-(1-methyl-1H-pyrazol-4-yl)-4H-pyrazolo[1,5-a]quinazolin-5-one] | < 1 µM |  | 217 to 228 °C | 
Cc1cc(-c2ccc3c(=O)n(CC(F)F)c4cc(C5CCOCC5)nn4c3c2)cc(C)n1.Cl [Example 102, 4-(2,2-Difluoro-ethyl)-8-(2,6-dimethyl-pyridin-4-yl)-2-(tetrahydro-pyran-4-yl)-4H-pyrazolo[1,5-a]quinazolin-5-one] | < 1 µM |  | > 250 °C | 
